Key:
human eIF4E protein = molecular target: T1, human eIF4E protein (Homo sapiens, UniProt P06730); experiment: Biochemical competitive binding assay (TR-FRET competition, EDA-m7GDP-ATTO-647N probe); details: read-out: hEIF4E TR-FRET IC50
T1 construct: purchased Novus NBP-45314
Method in brief: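 IC50 values come from 4-parameter fits of the normalized 665/620 nm TR-FRET ratio. Compound was first incubated 15 min with 4 nM recombinant His-eIF4E bound to 2.5 nM Eu-anti-His antibody, then 15 min with 5 nM m7GDP-ATTO-647N tracer, in pH 7.5 HEPES buffer with 100 mM KCl, Tween-20 and BSA.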

[1] = system: COLO 205 colorectal tumor cells; experiment: Tumor cell viability inhibition assay (CellTiter-Glo 2.0, 72 hours); format: cell-based; details: COLO 205 cell viability
Method in brief: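 IC50 derived by 4-parameter fitting after normalizing luminescence to DMSO and max-inhibition wells. Compounds tested as 11 concentrations in 4-fold steps on COLO 205 cells seeded at 1500 per well in RPMI-1640/10% FBS; ATP content measured with CellTiter-Glo 2.0 after 72 h.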

T1 sequence (P06730 whole entry): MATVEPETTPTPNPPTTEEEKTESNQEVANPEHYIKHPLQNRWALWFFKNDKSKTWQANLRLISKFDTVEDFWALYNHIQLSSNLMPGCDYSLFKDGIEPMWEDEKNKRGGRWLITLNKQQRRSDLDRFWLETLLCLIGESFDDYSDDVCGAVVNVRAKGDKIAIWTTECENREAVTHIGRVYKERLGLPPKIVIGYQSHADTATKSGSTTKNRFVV

| SMILES | IC50 (human eIF4E protein) [µM] | IC50 [1] [µM] | IC50 ([1]; Homo sapiens, COLO 205, 72 h) [µM] |
| --- | --- | --- | --- |
| COC1CCN(C2(C)CCc3nc(C)n(CCOc4ccc(Cl)cc4-c4cc(C)nc5c(C(=O)O)csc45)c(=O)c3C2)CC1 (single isomer, unassigned) [Compound 496] | < 0.1 | < 5 | – |
| Cc1cc(-c2cc(Cl)ccc2OCCn2c(C)nc3c(c2=O)C[C@@H](N2C[C@H]4CC[C@@H]2CC4OC(F)(F)F)CC3)c2scc(C(=O)O)c2n1 (single isomer, unassigned) [Compound 502] | < 0.1 | – | < 5 |
| Cc1cc(-c2cc(Cl)ccc2OCCn2c(C)nc3c(c2=O)CC(C)(N(C)CC2CC(F)(F)C2)CC3)c2scc(C(=O)O)c2n1 (single isomer, unassigned) [Compound 599] | < 0.1 | – | 5 to 20 |
| Cc1nc2c(c(=O)n1CC#Cc1ccc(Cl)cc1-c1ccnc3c(C(=O)O)csc13)C[C@H](N1CCC[C@@]3(C1)CC3(F)F)CC2 (single isomer, unassigned) [Compound 550, 7-(5-chloro-2-(3-(6-(1,1-difluoro-5-azaspiro[2.5]octan-5-yl)-2-methyl-4-oxo-5,6,7,8-tetrahydroquinazolin-3(4H)-yl)prop-1-yn-1-yl)phenyl)thieno[3,2-b]pyridine-3-carboxylic acid] | < 0.1 | – | < 5 |
| COC1CCN(C2CCc3nc(C)n(CC#Cc4ccc(Cl)cc4-c4ccnc5c(C(=O)O)csc45)c(=O)c3C2)CC1 (single isomer, unassigned) [Compound 410] | < 0.1 | 5 to 20 | – |
| Cc1cc(-c2cc(Cl)ccc2OCCn2c(C)nc3c(c2=O)C[C@@H](N2CCC(OC(F)(F)F)CC2)[C@H]2C[C@@H]32)c2scc(C(=O)O)c2n1 (single isomer, unassigned) [Compound 598] | < 0.1 | – | < 5 |
| Cc1cc(-c2cc(Cl)ccc2OCCn2c(C)nc3c(c2=O)C[C@H](N2CCC(c4noc5ccc(F)cc45)CC2)CC3)c2scc(C(=O)O)c2n1 (single isomer, unassigned) [Compound 488] | < 0.1 | – | < 5 |
| Cc1cc(-c2cc(Cl)ccc2OCCn2c(C)nc3c(c2=O)CC(C)(N2CCC(OC(F)(F)F)CC2)CC3)c2scc(C(=O)O)c2n1 (single isomer, unassigned) [Compound 515] | < 0.1 | – | < 5 |
| Cc1cc(-c2cc(Cl)ccc2OCCn2c(C)nc3c(c2=O)CC(C)(N2CCC(OC(F)(F)F)CC2)CC3)c2scc(C(=O)O)c2n1 (stereo not drawn) [Compound 536] | < 0.1 | – | < 5 |
| Cc1cc(-c2cc(Cl)ccc2OCCn2c(C)nc3c(c2=O)CC(N)CC3)c2scc(C(=O)O)c2n1 (stereo not drawn) [Compound 411] | < 0.1 | – | < 5 |
| Cc1cc(-c2cc(Cl)ccc2OCCn2c(C)nc3c(c2=O)CC(N2CC4(CCCN(CC(F)(F)F)C4)C2)CC3)c2scc(C(=O)O)c2n1 (single isomer, unassigned) [Compound 508] | < 0.1 | < 5 | – |
| COC1CCN(C2(C)CCc3nc(C)n(CCOc4ccc(Cl)cc4-c4cc(C)nc5c(C(=O)O)csc45)c(=O)c3C2)CC1 (stereo not drawn) [Compound 114] | < 0.1 | – | < 5 |
| COc1cc(C2CCN([C@@H]3CCc4nc(C)n(CCOc5ccc(Cl)cc5-c5cc(C)nc6c(C(=O)O)csc56)c(=O)c4C3)CC2)ccn1 (single isomer, unassigned) [Compound 575] | < 0.1 | – | < 5 |
| Cc1nc2c(c(=O)n1CCOc1ccc(Cl)cc1-c1ccnc(CC(=O)O)c1)CC(N(C)CC1CC(F)(F)C1)CC2 (stereo not drawn) [Compound 118] | 0.5 to 5 | – | > 20 |
| Cc1cc(-c2cc(Cl)ccc2OCCn2c(C)nc3c(c2=O)C[C@@H](N2CCC[C@]4(C2)CC4(F)F)CC32CC2)c2scc(C(=O)O)c2n1 (single isomer, unassigned) [Compound 583] | < 0.1 | – | < 5 |
| Cc1cc(-c2cc(Cl)ccc2OCCn2c(C)nc3c(c2=O)CC(N2CCC(OC(F)(F)F)CC2)CC3)c2scc(C(=O)NS(=O)(=O)C3CC3)c2n1 (single isomer, unassigned) [Compound 417] | < 0.1 | – | < 5 |
| Cc1cc(-c2cc(Cl)ccc2OCCn2c(C)nc3c(c2=O)CC(N2CCC(OC(F)(F)F)CC2)CC32CC2)c2scc(C(=O)O)c2n1 (single isomer, unassigned) [Compound 380, 7-(5-chloro-2-(2-(2′-methyl-4′-oxo-6′-(4-(trifluoromethoxy)piperidin-1-yl)-6′,7′-dihydro-4′H-spiro[cyclopropane-1,8′-quinazolin]-3′(5′H)-yl)ethoxy)phenyl)-5-methylthieno[3,2-b]pyridine-3-carboxylic acid] | < 0.1 | < 5 | – |
| Cc1cc(-c2cc(Cl)ccc2OCCn2c(C)nc3c(c2=O)C[C@@H](N2CCCC[C@@H]2c2cccc(F)c2)CC32CC2)c2scc(C(=O)O)c2n1 (single isomer, unassigned) [Compound 629, 7-(5-chloro-2-(2-(6′-(2-(3-fluorophenyl)piperidin-1-yl)-2′-methyl-4′-oxo-6′,7′-dihydro-4′H-spiro[cyclopropane-1,8′-quinazolin]-3′(5′H)-yl)ethoxy)phenyl)-5-methylthieno[3,2-b]pyridine-3-carboxylic acid] | 0.5 to 5 | – | 5 to 20 |
| Cc1cc(-c2cc(Cl)ccc2OCCn2c(C)nc3c(c2=O)CC(C)(N2CCC(C(F)(F)F)CC2)CC3)c2scc(C(=O)O)c2n1 (single isomer, unassigned) [Compound 530] | < 0.1 | – | < 5 |
| Cc1cc(-c2cc(Cl)ccc2OCCn2c(C)nc3c(c2=O)C[C@@H](N2CCC(c4cncc(S(=O)(=O)NC(C)(C)C)c4)CC2)CC3)c2scc(C(=O)O)c2n1 (single isomer, unassigned) [Compound 456] | < 0.1 | – | 5 to 20 |
| Cc1cc(-c2cc(Cl)ccc2OCCn2c(C)nc3c(c2=O)CC(N2CCC(OC(F)(F)F)CC2)CC3)c2scc(C(=O)NS(=O)(=O)C(F)(F)F)c2n1 (single isomer, unassigned) [Compound 459] | < 0.1 | – | 5 to 20 |
| Cc1cc(-c2cc(Cl)ccc2OCCn2c(C)nc3c(c2=O)C[C@H](N2CCCC(F)(F)CC2)CC32CC2)c2scc(C(=O)O)c2n1 (single isomer, unassigned) [Compound 545] | < 0.1 | – | < 5 |
| Cc1cc(-c2cc(Cl)ccc2OCCn2c(C)nc3c(c2=O)C[C@H](N2CCCC[C@H]2c2cccc(C(F)(F)F)c2)CC3)c2scc(C(=O)O)c2n1 (single isomer, unassigned) [Compound 587] | < 0.1 | – | < 5 |
| Cc1cc(-c2cc(Cl)ccc2OCCn2c(C)nc3c(c2=O)C[C@H](N2CCC(C(F)(F)F)CC2)CC32CC2)c2scc(C(=O)O)c2n1 (single isomer, unassigned) [Compound 602] | < 0.1 | – | < 5 |

Other lines, results leading:

| IC50 (human eIF4E protein) [µM] | IC50 [1] [µM] | IC50 ([1]; Homo sapiens, COLO 205, 72 h) [µM] | SMILES |
| --- | --- | --- | --- |
| < 0.1 | – | < 5 | COC1(C(F)(F)F)CCN([C@@H]2CCc3nc(C)n(CCOc4ccc(Cl)cc4-c4cc(C)nc5c(C(=O)O)csc45)c(=O)c3C2)CC1 (single isomer, unassigned) [Compound 450] |
| < 0.1 | – | < 5 | Cc1cc(-c2cc(Cl)ccc2OCCn2c(C)nc3c(c2=O)C[C@H](N2CCC(c4nc(C(F)(F)F)cs4)CC2)CC3)c2scc(C(=O)O)c2n1 (single isomer, unassigned) [Compound 577] |
| < 0.1 | – | < 5 | Cc1cc(-c2cc(Cl)ccc2OCCn2c(C)nc3c(c2=O)C[C@H](N2CCC(c4ccc(F)cc4F)CC2)CC3)c2scc(C(=O)O)c2n1 (single isomer, unassigned) [Compound 418] |
| < 0.1 | – | > 20 | Cc1cc(-c2cc(Cl)ccc2OCCn2c(C)nc3c(c2=O)C[C@@H](N2CCC(c4cn(C)cn4)CC2)CC3)c2scc(C(=O)O)c2n1 (single isomer, unassigned) [Compound 487] |
| < 0.1 | – | < 5 | Cc1cc(-c2cc(Cl)ccc2OCCn2c(C)nc3c(c2=O)C[C@H](N2CC[C@H](C(F)F)C2)CC3)c2scc(C(=O)O)c2n1 (single isomer, unassigned) [Compound 122] |
| < 0.1 | – | < 5 | Cc1cc(-c2cc(Cl)ccc2OCCn2c(C)nc3c(c2=O)C[C@@H](N2CCC(c4ncco4)CC2)CC3)c2scc(C(=O)O)c2n1 (single isomer, unassigned) [Compound 461] |
| < 0.1 | – | < 5 | Cc1cc(-c2cc(Cl)ccc2OCCn2c(C)nc3c(c2=O)C[C@H](N2CCO[C@H](CC(F)(F)F)C2)CC3)c2scc(C(=O)O)c2n1 (single isomer, unassigned) [Compound 525] |
| < 0.1 | – | < 5 | Cc1cc(-c2cc(Cl)ccc2OCCn2c(C)nc3c(c2=O)C[C@H](N2C[C@H]4CC[C@@H]2CC4OC(F)(F)F)CC3)c2scc(C(=O)O)c2n1 (single isomer, unassigned) [Compound 499] |
| < 0.1 | – | < 5 | CO[C@@H](C1CCN([C@@H]2CCc3nc(C)n(CCOc4ccc(Cl)cc4-c4cc(C)nc5c(C(=O)O)csc45)c(=O)c3C2)CC1)C(F)(F)F (single isomer, unassigned) [Compound 551] |
| < 0.1 | – | < 5 | Cc1cc(-c2cc(Cl)ccc2OCCn2c(C)nc3c(c2=O)C[C@@H](N2CCC(c4ccccc4OC(F)(F)F)CC2)CC3)c2scc(C(=O)O)c2n1 (single isomer, unassigned) [Compound 572] |
| < 0.1 | – | < 5 | Cc1cc(-c2cc(Cl)ccc2OCCn2c(C)nc3c(c2=O)C[C@H](N2CCC[C@@H](C(F)F)C2)CC3)c2scc(C(=O)O)c2n1 (single isomer, unassigned) [Compound 116] |
| < 0.1 | – | < 5 | Cc1cc(-c2cc(Cl)ccc2OCCn2c(C)nc3c(c2=O)C[C@@H](N2CCC(O)CC2)CC3)c2scc(C(=O)O)c2n1 (single isomer, unassigned) [Compound 435] |
